Patent US8008077B2, “Photochemical internalization for delivery of molecules into the cytosol” (priority 2000, dated 2011)

Tested on: V-79 cells
Assay: PCI cell killing by bleomycin, cell survival by MTT assay
Type: cell-based, Chinese hamster
Details: light before
Method: The Chinese hamster lung fibroblast cell line V-79 was used in this study.
The cells (75 000 cells/well, 1 ml/well) were seeded into 12-well plates (Costar Corning, N.Y., USA) and allowed to attach for 6 h. To some of the wells 1 ml medium with 0.7 μg/ml TPPS2a was added (see Table 1), and the cells were incubated for 18 h (5% v/v CO2, 37° C.) The cells were washed three times with medium. The cells were then incubated in serum-containing medium for 4 h. The medium was removed, new medium was added and the cells were illuminated by exposure to light from a box containing a bank of four fluorescent tubes (Osram 18W/67) with the highest fluence around 420 nm.
Different doses of bleomycin were immediately added. After 1 or 4 h incubation with bleomycin the cells were washed once with RPMI-medium, 1 ml of medium was added and after 3 days of incubation cell survival was measured by the MTT assay. This method is based on reduction of a water-soluble tetrazolium salt (MTT) to a purple, insoluble formazan product by mitochondrial dehydrogenases present in living, metabolically active cells. […] The solution is transferred to a 96 wells plate which is read by a Multiskan EX microplate reader (Labsystems, Finland) with a 570 nm bandpass filter. Cell survival is calculated as percent of control cells not receiving light treatment.

Substance: bleomycin
- light-induced effect on cytotoxicity (cell survival, MTT) (100 μM bleomycin, 1 or 4 h, with 0.7 μg/ml TPPS2a): substantial light-induced increase in the cytotoxicity
- light-induced effect on cell survival (MTT) (lowest dose of bleomycin (5 μM, 1 h), with TPPS2a): lack of effect
